Where a name gives a salt, the structure may show the parent alone. Read-outs that look alike come from different tables or passages of the source.
Assays:
Experiment in all cases: Inhibitory effect on growth of human cancer cells (in vitro), WST-8
Format in all cases: cell-based
[1] = tested on: human colorectal cancer HCT116 cells; details: 96 hours culture
How it was run: (§1)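 Cells seeded at 1000 cells/well in RPMI1640 with 10% FBS, compounds added after overnight culture, then 96 h exposure. Viability by WST-8, about 1 h at 37 °C, 5% CO2, absorbance read at 450 nm.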

[2] = tested on: human colorectal cancer HT-29 cells; details: 96 hours culture, read-out: IC50 (nM) HT29
How it was run: as §1

[3] = tested on: human non-small cell lung cancer A549 cells; details: 96 hours culture
How it was run: as §1

| IC50 ([1]; hydrochloride) [nM] | IC50 ([2]; hydrochloride) [nM] | IC50 ([3]; hydrochloride) [nM] | IC50 ([1]; Homo sapiens, HCT-116, 96 h) [nM] | IC50 ([2]; Homo sapiens, HT-29, 96 h) [nM] | IC50 ([3]; Homo sapiens, A549, 96 h) [nM] | IC50 [3] [nM] | SMILES |
| --- | --- | --- | --- | --- | --- | --- | --- |
| 35 | 33 | 47.4 | – | – | – | – | CCn1nnc(-c2[nH]c(C)c(C(=O)c3ccc(OCCN)c(Br)c3)c2C)n1 [Compound 302, (4-(2-aminoethoxy)-3-bromophenyl)(5-(2-ethyl-2H-tetrazol-5-yl)-2,4-dimethyl-1H-pyrrol-3-yl)methanone hydrochloride] |
| – | – | – | 9.2 | 6.6 | 9.7 | – | CCc1nnc(-c2c(C)c(C(=O)c3cccc(Br)c3)c(C)n2S(C)(=O)=O)o1 [Compound 225, (3-bromophenyl)(5-(5-ethyl-1,3,4-oxadiazol-2-yl)-2,4-dimethyl-1-(methylsulfonyl)-1H-pyrrol-3-yl)methanone] |
| – | – | – | 42.9 | 39.3 | 205 | – | CC(=O)OCc1nnc(-c2[nH]c(C)c(C(=O)c3cccc(Br)c3)c2C)o1 [Compound 210, (5-(4-(3-bromobenzoyl)-3,5-dimethyl-1H-pyrrol-2-yl)-1,3,4-oxadiazol-2-yl)methyl acetate] |
| – | – | – | 39.5 | 31.5 | – | 139 | CCn1nnc(-c2[nH]c(C)c(C(=O)c3ccc(OCCN)c(Br)c3)c2C)n1 [Compound 167, (4-(2-aminoethoxy)-3-bromophenyl) (5-(2-ethyl-2H-tetrazol-5-yl)-2,4-dimethyl-1H-pyrrol-3-yl)methanone] |
| – | – | – | 158 | 37.1 | 46 | – | Cc1c(-c2nnc(C3CC3)o2)[nH]c(C(F)F)c1C(=O)c1cccc(Br)c1 [Compound 265, (3-bromophenyl)(5-(5-cyclopropyl-1,3,4-oxadiazol-2-yl)-2-(difluoromethyl)-4-methyl-1H-pyrrol-3-yl)methanone] |
| – | – | – | 44.6 | 38.6 | 77.1 | – | Cc1[nH]c(-c2nnc(CCCl)o2)c(C)c1C(=O)c1cccc(Br)c1 [Compound 174, (3-bromophenyl)(5-(5-(2-chloroethyl)-1,3,4-oxadiazol-2-yl)-2,4-dimethyl-1H-pyrrol-3-yl)methanone] |
| – | – | – | 40.4 | 36.9 | 44.7 | – | COc1ccc(C(=O)c2c(C(F)F)[nH]c(-c3nnn(CCO)n3)c2C)cc1Br [Compound 127, (3-bromo-4-methoxyphenyl)(2-(difluoromethyl)-5-(2-(2-hydroxyethyl)-2H-tetrazol-5-yl)-4-methyl-1H-pyrrol-3-yl)methanone] |
| – | – | – | 50.4 | 44.1 | 92.9 | – | Cc1noc(-c2[nH]c(C)c(C(=O)c3cccc(Br)c3)c2C)n1 [Compound 271, (3-bromophenyl) (2,4-dimethyl-5-(3-methyl-1,2,4-oxadiazol-5-yl)-1H-pyrrol-3-yl)methanone] |
| – | – | – | 2.9 | 1.8 | 9.1 | – | Cc1nnc(-c2[nH]c(C)c(C(=O)c3cccc(Br)c3)c2C)o1 [Compound 185, (3-bromophenyl) (2,4-dimethyl-5-(5-methyl-1,3,4-oxadiazol-2-yl)-1H-pyrrol-3-yl)methanone] |
| – | – | – | 286 | 230 | 999 | – | Cc1[nH]c(-c2nnc(CN)o2)c(C)c1C(=O)c1cccc(Br)c1 [Compound 214, (5-(5-(aminomethyl)-1,3,4-oxadiazol-2-yl)-2,4-dimethyl-1H-pyrrol-3-yl)(3-bromophenyl)methanone] |
| – | – | – | 329 | 336 | 800 | – | Cc1[nH]c(-c2nnc(C3CCC3)o2)c(C)c1C(=O)c1cccc(Br)c1 [Compound 179, (3-bromophenyl) (5-(5-cyclobutyl-1,3,4-oxadiazol-2-yl)-2,4-dimethyl-1H-pyrrol-3-yl)methanone] |
| – | – | – | 902 | 845 | 905 | – | COc1ccc(C(=O)c2c(C3SCCCS3)[nH]c(-c3nnc(C4CC4)o3)c2C)cc1Br [Compound 262, (3-bromo-4-methoxyphenyl)(5-(5-cyclopropyl-1,3,4-oxadiazol-2-yl)-2-(1,3-dithian-2-yl)-4-methyl-1H-pyrrol-3-yl)methanone] |

— patent US20140343017A1, “PYRROLE COMPOUND” (Kabushiki Kaisha Yakult Honsha, priority 2012, published 2014)
